System: Metabolism protein genes
Experiment: DNA chip mRNA expression in yeast, metabolism protein genes (Table 7)
Format: cell-based, Saccharomyces cerevisiae S288C
Outline: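 Chemical exposure: 2 h, log-phase S. cerevisiae S288C, YPD, 25° C., dose set to inhibit growth without death. Profiling: mRNA labeled by reverse transcription with Cy3- or Cy5-dUTP, hybridized to whole-genome array. Output: fluorescence ratio against untreated culture.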

Cl[C@H]1[C@H](Cl)[C@@H](Cl)[C@@H](Cl)[C@H](Cl)[C@H]1Cl [(7), γ-hexachlorocyclohexane]
The level of expressed mRNA in the presence of chemical substance/The level of expressed mRNA in the absence of chemical substance (yeast gene YKL035W): 0.6
level of expressed mRNA in the presence/in the absence of chemical substance (yeast gene YKL060C): 1.2
The level of expressed mRNA in the presence of chemical substance/The level of expressed mRNA in the absence of chemical substance (yeast gene YKL091C): 1.9
The level of expressed mRNA in the presence of chemical substance/The level of expressed mRNA in the absence of chemical substance (yeast gene YKL104C): 2.3
level of expressed mRNA in the presence/in the absence of chemical substance (yeast gene YKL148C): 0.6
The level of expressed mRNA in the presence of chemical substance/The level of expressed mRNA in the absence of chemical substance (yeast gene YKL152C): 1.5
level of expressed mRNA in the presence/in the absence of chemical substance (yeast gene YKL157W): 1.9
The level of expressed mRNA in the presence of chemical substance/The level of expressed mRNA in the absence of chemical substance (yeast gene YKL213C): 1.0
The level of expressed mRNA in the presence of chemical substance/The level of expressed mRNA in the absence of chemical substance (yeast gene YKL215C): 1.1
level of expressed mRNA in the presence/in the absence of chemical substance (yeast gene YKR034W): 0.7
The level of expressed mRNA in the presence of chemical substance/The level of expressed mRNA in the absence of chemical substance (yeast gene YKR039W): 1.0
The level of expressed mRNA in the presence of chemical substance/The level of expressed mRNA in the absence of chemical substance (yeast gene YLL058W): 1.5
level of expressed mRNA in the presence/in the absence of chemical substance (yeast gene YLR006C): 1.1
level of expressed mRNA in the presence/in the absence of chemical substance (yeast gene YLR044C): 1.3
level of expressed mRNA in the presence/in the absence of chemical substance (yeast gene YLR056W): 0.8
level of expressed mRNA in the presence/in the absence of chemical substance (yeast gene YLR058C): 0.5
level of expressed mRNA in the presence/in the absence of chemical substance (yeast gene YLR081W): 0.7
level of expressed mRNA in the presence/in the absence of chemical substance (yeast gene YLR089C): 1.6
The level of expressed mRNA in the presence of chemical substance/The level of expressed mRNA in the absence of chemical substance (yeast gene YLR180W): 0.6
The level of expressed mRNA in the presence of chemical substance/The level of expressed mRNA in the absence of chemical substance (yeast gene YLR273C): 1.2
level of expressed mRNA in the presence/in the absence of chemical substance (yeast gene YLR284C): 0.8
The level of expressed mRNA in the presence of chemical substance/The level of expressed mRNA in the absence of chemical substance (yeast gene YLR299W): 0.8
The level of expressed mRNA in the presence of chemical substance/The level of expressed mRNA in the absence of chemical substance (yeast gene YLR300W): 0.5
level of expressed mRNA in the presence/in the absence of chemical substance (yeast gene YLR304C): 0.6
The level of expressed mRNA in the presence of chemical substance/The level of expressed mRNA in the absence of chemical substance (yeast gene YLR307W): 1.5
The level of expressed mRNA in the presence of chemical substance/The level of expressed mRNA in the absence of chemical substance (yeast gene YLR348C): 0.9
level of expressed mRNA in the presence/in the absence of chemical substance (yeast gene YLR354C): 1.1
level of expressed mRNA in the presence/in the absence of chemical substance (yeast gene YLR372W): 0.2
level of expressed mRNA in the presence/in the absence of chemical substance (yeast gene YML022W): 0.6
The level of expressed mRNA in the presence of chemical substance/The level of expressed mRNA in the absence of chemical substance (yeast gene YML054C): 1.2
The level of expressed mRNA in the presence of chemical substance/The level of expressed mRNA in the absence of chemical substance (yeast gene YML070W): 3.1
The level of expressed mRNA in the presence of chemical substance/The level of expressed mRNA in the absence of chemical substance (yeast gene YML100W): 2.2
The level of expressed mRNA in the presence of chemical substance/The level of expressed mRNA in the absence of chemical substance (yeast gene YMR008C): 0.9
level of expressed mRNA in the presence/in the absence of chemical substance (yeast gene YMR011W): 0.8
level of expressed mRNA in the presence/in the absence of chemical substance (yeast gene YMR015C): 0.4
The level of expressed mRNA in the presence of chemical substance/The level of expressed mRNA in the absence of chemical substance (yeast gene YMR020W): 2.7
level of expressed mRNA in the presence/in the absence of chemical substance (yeast gene YMR083W): 1.7
The level of expressed mRNA in the presence of chemical substance/The level of expressed mRNA in the absence of chemical substance (yeast gene YMR105C): 2.8
The level of expressed mRNA in the presence of chemical substance/The level of expressed mRNA in the absence of chemical substance (yeast gene YMR189W): 0.8
level of expressed mRNA in the presence/in the absence of chemical substance (yeast gene YMR205C): 0.9
level of expressed mRNA in the presence/in the absence of chemical substance (yeast gene YMR261C): 1.3
The level of expressed mRNA in the presence of chemical substance/The level of expressed mRNA in the absence of chemical substance (yeast gene YMR271C): 3.4
The level of expressed mRNA in the presence of chemical substance/The level of expressed mRNA in the absence of chemical substance (yeast gene YMR296C): 0.6
level of expressed mRNA in the presence/in the absence of chemical substance (yeast gene YMR323W): 1.1
The level of expressed mRNA in the presence of chemical substance/The level of expressed mRNA in the absence of chemical substance (yeast gene YNL012W): 2.0
level of expressed mRNA in the presence/in the absence of chemical substance (yeast gene YNL025C): 1.2
The level of expressed mRNA in the presence of chemical substance/The level of expressed mRNA in the absence of chemical substance (yeast gene YNL045W): 1.8
The level of expressed mRNA in the presence of chemical substance/The level of expressed mRNA in the absence of chemical substance (yeast gene YNL104C): 0.6
The level of expressed mRNA in the presence of chemical substance/The level of expressed mRNA in the absence of chemical substance (yeast gene YNL106C): 0.9
The level of expressed mRNA in the presence of chemical substance/The level of expressed mRNA in the absence of chemical substance (yeast gene YNL169C): 0.7
level of expressed mRNA in the presence/in the absence of chemical substance (yeast gene YNL192W): 1.0
The level of expressed mRNA in the presence of chemical substance/The level of expressed mRNA in the absence of chemical substance (yeast gene YNL231C): 2.5
The level of expressed mRNA in the presence of chemical substance/The level of expressed mRNA in the absence of chemical substance (yeast gene YNL322C): 0.9
The level of expressed mRNA in the presence of chemical substance/The level of expressed mRNA in the absence of chemical substance (yeast gene YNL331C): 1.9
The level of expressed mRNA in the presence of chemical substance/The level of expressed mRNA in the absence of chemical substance (yeast gene YNL332W): 2.1
The level of expressed mRNA in the presence of chemical substance/The level of expressed mRNA in the absence of chemical substance (yeast gene YNR019W): 0.8
The level of expressed mRNA in the presence of chemical substance/The level of expressed mRNA in the absence of chemical substance (yeast gene YNR033W): 1.2
The level of expressed mRNA in the presence of chemical substance/The level of expressed mRNA in the absence of chemical substance (yeast gene YNR059W): 1.6
The level of expressed mRNA in the presence of chemical substance/The level of expressed mRNA in the absence of chemical substance (yeast gene YOL058W): 0.4
level of expressed mRNA in the presence/in the absence of chemical substance (yeast gene YOL086C): 1.9
level of expressed mRNA in the presence/in the absence of chemical substance (yeast gene YOL108C): 1.1
level of expressed mRNA in the presence/in the absence of chemical substance (yeast gene YOL116W): 1.5
The level of expressed mRNA in the presence of chemical substance/The level of expressed mRNA in the absence of chemical substance (yeast gene YOL126C): 1.4
The level of expressed mRNA in the presence of chemical substance/The level of expressed mRNA in the absence of chemical substance (yeast gene YOL153C): 3.3
level of expressed mRNA in the presence/in the absence of chemical substance (yeast gene YOL156W): 1.0
The level of expressed mRNA in the presence of chemical substance/The level of expressed mRNA in the absence of chemical substance (yeast gene YOL165C): 1.4
level of expressed mRNA in the presence/in the absence of chemical substance (yeast gene YOR002W): 1.0
level of expressed mRNA in the presence/in the absence of chemical substance (yeast gene YOR085W): 0.6
The level of expressed mRNA in the presence of chemical substance/The level of expressed mRNA in the absence of chemical substance (yeast gene YOR099W): 1.0
level of expressed mRNA in the presence/in the absence of chemical substance (yeast gene YOR103C): 1.2
level of expressed mRNA in the presence/in the absence of chemical substance (yeast gene YOR108W): 1.2
level of expressed mRNA in the presence/in the absence of chemical substance (yeast gene YOR128C): 0.7
The level of expressed mRNA in the presence of chemical substance/The level of expressed mRNA in the absence of chemical substance (yeast gene YOR130C): 1.3
level of expressed mRNA in the presence/in the absence of chemical substance (yeast gene YOR142W): 1.0
level of expressed mRNA in the presence/in the absence of chemical substance (yeast gene YOR176W): 0.5
level of expressed mRNA in the presence/in the absence of chemical substance (yeast gene YOR178C): 0.9
level of expressed mRNA in the presence/in the absence of chemical substance (yeast gene YOR251C): 1.0
The level of expressed mRNA in the presence of chemical substance/The level of expressed mRNA in the absence of chemical substance (yeast gene YOR336W): 1.2
The level of expressed mRNA in the presence of chemical substance/The level of expressed mRNA in the absence of chemical substance (yeast gene YOR347C): 0.9
level of expressed mRNA in the presence/in the absence of chemical substance (yeast gene YOR348C): 0.8
The level of expressed mRNA in the presence of chemical substance/The level of expressed mRNA in the absence of chemical substance (yeast gene YPL017C): 1.4
level of expressed mRNA in the presence/in the absence of chemical substance (yeast gene YPL028W): 1.3
level of expressed mRNA in the presence/in the absence of chemical substance (yeast gene YPL057C): 0.6
level of expressed mRNA in the presence/in the absence of chemical substance (yeast gene YPL135W): 1.2
level of expressed mRNA in the presence/in the absence of chemical substance (yeast gene YPL148C): 1.0
The level of expressed mRNA in the presence of chemical substance/The level of expressed mRNA in the absence of chemical substance (yeast gene YPR026W): 1.3
level of expressed mRNA in the presence/in the absence of chemical substance (yeast gene YPR113W): 1.2
level of expressed mRNA in the presence/in the absence of chemical substance (yeast gene YPR165W): 1.0
The level of expressed mRNA in the presence of chemical substance/The level of expressed mRNA in the absence of chemical substance (yeast gene YPR167C): 1.2
level of expressed mRNA in the presence/in the absence of chemical substance (yeast gene YPR183W): 1.2
